Holding throughout (format): functional
The subject of assay [1] is Mycobacterium tuberculosis. Briefly: Tested for antibacterial activity against Mycobacterium tuberculosis H37Rv streptomycin resistant strain.
Assay [2] deals with Mycobacterium tuberculosis. Briefly: Tested for antibacterial activity against Mycobacterium tuberculosis H37Rv kanamycin resistant strain.
Assay [3] relates to Mycobacterium tuberculosis. Nature of the assay: Tested for antibacterial activity against Mycobacterium tuberculosis H37Rv isonicotinic acid hydrazide-resistant strain.

≈ marks a conversion by molar mass, not a printed value.

Turning to `CCCC(=O)OCCCNC(=O)c1ccccc1SSc1ccccc1C(=O)NCCCOC(=O)CCC`, the figures for the minimum inhibitory concentration (MIC) in assay [1], in assay [2] and in assay [3] were 6.25 µg/mL (≈ 11.1 µM), 6.25 µg/mL (≈ 11.1 µM) and 3.13 µg/mL (≈ 5.58 µM), respectively.

In the case of `CCOc1ccc2nc(NC(=O)c3ccccc3SSc3ccccc3C(=O)Nc3nc4ccc(OCC)cc4s3)sc2c1`, the MIC in assay [1], in assay [2] and in assay [3] was over 100 µg/mL in each case.

Take `O=C(NCc1ccco1)c1ccccc1SSc1ccccc1C(=O)NCc1ccco1`: the minimum inhibitory concentration (MIC) in assay [1], in assay [2] and in assay [3] was 12.5 µg/mL (≈ 26.9 µM) throughout.

On to `O=C(Nc1ccc(Br)c2ccccc12)c1ccccc1SSc1ccccc1C(=O)Nc1ccc(Br)c2ccccc12`, for which the minimum inhibitory concentration (MIC) in assay [1], in assay [2] and in assay [3] was 12.5 µg/mL (≈ 17.5 µM) throughout.

Turning to `CCn1c2ccccc2c2cc(NC(=O)c3ccccc3SSc3ccccc3C(=O)Nc3ccc4c(c3)c3ccccc3n4CC)ccc21`, the minimum inhibitory concentration (MIC) is 1.56 µg/mL (≈ 2.26 µM) in assay [1], 3.13 µg/mL (≈ 4.53 µM) in assay [2] and 1.56 µg/mL (≈ 2.26 µM) in assay [3].

As to `O=C(Nc1c([N+](=O)[O-])ccc2ccccc12)c1ccccc1SSc1ccccc1C(=O)Nc1c([N+](=O)[O-])ccc2ccccc12`, the minimum inhibitory concentration (MIC) in assay [1], in assay [2] and in assay [3] was 50 µg/mL (≈ 77.3 µM) throughout.

Consider `O=C(c1ccccc1SSc1ccccc1C(=O)n1nnc2ccccc21)n1nnc2ccccc21`, for which the MIC in assay [1], in assay [2] and in assay [3] was over 100 µg/mL each time.

Turning to `O=c1c2ccccc2sn1CCO`, the minimal inhibitory concentration (MIC) in assay [1], in assay [2] and in assay [3] was 12.5 µg/mL (≈ 64 µM) each time.

As for `NC(=O)c1ccccc1SSc1ccccc1C(N)=O`, the minimum inhibitory concentration (MIC) in assay [1], in assay [2] and in assay [3] was 6.25 µg/mL (≈ 20.5 µM) in each case.

Consider `CCCCCCCCCCCC(=O)OCCNC(=O)c1ccccc1SSc1ccccc1C(=O)NCCOC(=O)CCCCCCCCCCC`, for which the MIC in assay [1], in assay [2] and in assay [3] was 3.13 µg/mL (≈ 4.13 µM) each time.

On to `O=C1c2ccccc2S(=O)(=O)N1CO`, for which the MIC is 100 µg/mL (≈ 469 µM) in assay [1], over 100 µg/mL in assay [2] and over 100 µg/mL in assay [3].

With `CCCCCCC(=O)OCCCNC(=O)c1ccccc1SSc1ccccc1C(=O)NCCCOC(=O)CCCCCC`, the minimal inhibitory concentration (MIC) in assay [1], in assay [2] and in assay [3] was 1.56 µg/mL (≈ 2.42 µM) in each case.

On to `O=C(Nc1ccc(S(=O)(=O)Nc2nc3ccccc3s2)cc1)c1ccccc1SSc1ccccc1C(=O)Nc1ccc(S(=O)(=O)Nc2nc3ccccc3s2)cc1`, for which the values for the MIC in assay [1], in assay [2] and in assay [3] were 100 µg/mL (≈ 113 µM), 50 µg/mL (≈ 56.7 µM) and 100 µg/mL (≈ 113 µM), respectively.

On to `CCCCCCCCCCCC(=O)OCCCNC(=O)c1ccccc1SSc1ccccc1C(=O)NCCCOC(=O)CCCCCCCCCCC`, for which the minimum inhibitory concentration (MIC) in assay [1], in assay [2] and in assay [3] was 0.78 µg/mL (≈ 0.993 µM) throughout.

`O=C(O)Cc1ccc(NC(=O)c2ccccc2SSc2ccccc2C(=O)Nc2ccc(CC(=O)O)cc2)cc1`: the MIC in assay [1], in assay [2] and in assay [3] was 100 µg/mL (≈ 175 µM) each time.

As to `O=C(Nc1cccc(C(F)(F)F)c1)c1ccccc1SSc1ccccc1C(=O)Nc1cccc(C(F)(F)F)c1`, the results for the MIC in assay [1], in assay [2] and in assay [3] were 3.13 µg/mL (≈ 5.28 µM), 6.25 µg/mL (≈ 10.5 µM) and 3.13 µg/mL (≈ 5.28 µM), respectively.

For `CCOC(=O)CNC(=O)c1ccccc1SSc1ccccc1C(=O)NCC(=O)OCC`, the figures for the MIC in assay [1], in assay [2] and in assay [3] were 12.5 µg/mL (≈ 26.2 µM), 25 µg/mL (≈ 52.5 µM) and 12.5 µg/mL (≈ 26.2 µM), respectively.

Take `O=C(c1ccccc1SSc1ccccc1C(=O)N1C(=O)c2ccccc2C1=O)N1C(=O)c2ccccc2C1=O`: the minimum inhibitory concentration (MIC) in assay [1], in assay [2] and in assay [3] was over 100 µg/mL in each case.

As for `O=C(Nc1cccc2ccc(O)cc12)c1ccccc1SSc1ccccc1C(=O)Nc1cccc2ccc(O)cc12`, the minimal inhibitory concentration (MIC) in assay [1] came out at 50 µg/mL (≈ 84.9 µM); in assay [2], 50 µg/mL (≈ 84.9 µM); in assay [3], 12.5 µg/mL (≈ 21.2 µM).

As for `CCOC(=O)c1ccc(NC(=O)c2ccccc2SSc2ccccc2C(=O)Nc2ccc(C(=O)OCC)cc2)cc1`, the values for the MIC in assay [1], in assay [2] and in assay [3] were 3.13 µg/mL (≈ 5.21 µM), 6.25 µg/mL (≈ 10.4 µM) and 3.13 µg/mL (≈ 5.21 µM), respectively.

For the compound `CC(=O)OCCCNC(=O)c1ccccc1SSc1ccccc1C(=O)NCCCOC(C)=O`, the minimal inhibitory concentration (MIC) in assay [1] came to 12.5 µg/mL (≈ 24.8 µM); in assay [2] it was 12.5 µg/mL (≈ 24.8 µM); in assay [3], 6.25 µg/mL (≈ 12.4 µM).

Consider `CC(O)Cn1sc2ccccc2c1=O` (configuration not stated), for which the MIC in assay [1], in assay [2] and in assay [3] was 12.5 µg/mL (≈ 59.7 µM) each time.

As to `CN[C@@H]1[C@H](O[C@H]2[C@H](O[C@H]3[C@H](O)[C@@H](O)[C@H](N=C(N)N)[C@@H](O)[C@@H]3N=C(N)N)O[C@@H](C)[C@]2(O)C=O)O[C@@H](CO)[C@H](O[C@@H]2O[C@H](CO)[C@@H](O)[C@H](O)[C@@H]2O)[C@H]1O`, the values for the minimum inhibitory concentration (MIC) in assay [1], in assay [2] and in assay [3] were over 100 µg/mL, 3.13 µg/mL (≈ 4.21 µM) and 0.78 µg/mL (≈ 1.05 µM), respectively.

As to `O=C(Nc1cccc2cccnc12)c1ccccc1SSc1ccccc1C(=O)Nc1cccc2cccnc12`, the MIC in assay [1] was found to be 50 µg/mL (≈ 89.5 µM); in assay [2] it was 50 µg/mL (≈ 89.5 µM); in assay [3], 12.5 µg/mL (≈ 22.4 µM).

The record behind these values is ChEMBL document CHEMBL1122862, “Synthesis and antibacterial activity of 2,2'-dithiobis(benzamide) derivatives against Mycobacterium species” (1985).
